Reference: article PMC5730604
Where two headings read alike, the source gives them in different places. Positions of bridges follow the written chain, without caps; N, C: chain ends. Non-standard residues stand in square brackets, D forms with d. Residues, ends and D or L forms follow the SMILES beside them. Chains are numbered I, II in the order given. *: point of attachment. PEG28 = NCCOCCOCCOCCOCCOCCOCCOCCOCCOCCOCCOCCOCCOCCOCCOCCOCCOCCOCCOCCOCCOCCOCCOCCOCCOCCOCCOCCOCCC(=O)O; Tyr(3-NO2) = N[C@@H](Cc1ccc(O)c([N+](=O)[O-])c1)C(=O)O; Biotin = O=C1N[C@H]2[C@H](CS[C@H]2CCCCC(=O)*)N1; Hyp = O=C(O)[C@@H]1C[C@@H](O)CN1; For = O=C*

Tests used:
[1] = molecular target: T1, integrin α3 (Homo sapiens, UniProt P26006); assay: Displacement of anti-CD49c-PE conjugate (flow cytometry); type: binding; details: increasing peptide concentrations, 2 mM MnCl2, 30 min on ice, flow cytometry (PE channel)
T1 construct: endogenous in cells
T1 sequence (P26006 33-872 limits assumed): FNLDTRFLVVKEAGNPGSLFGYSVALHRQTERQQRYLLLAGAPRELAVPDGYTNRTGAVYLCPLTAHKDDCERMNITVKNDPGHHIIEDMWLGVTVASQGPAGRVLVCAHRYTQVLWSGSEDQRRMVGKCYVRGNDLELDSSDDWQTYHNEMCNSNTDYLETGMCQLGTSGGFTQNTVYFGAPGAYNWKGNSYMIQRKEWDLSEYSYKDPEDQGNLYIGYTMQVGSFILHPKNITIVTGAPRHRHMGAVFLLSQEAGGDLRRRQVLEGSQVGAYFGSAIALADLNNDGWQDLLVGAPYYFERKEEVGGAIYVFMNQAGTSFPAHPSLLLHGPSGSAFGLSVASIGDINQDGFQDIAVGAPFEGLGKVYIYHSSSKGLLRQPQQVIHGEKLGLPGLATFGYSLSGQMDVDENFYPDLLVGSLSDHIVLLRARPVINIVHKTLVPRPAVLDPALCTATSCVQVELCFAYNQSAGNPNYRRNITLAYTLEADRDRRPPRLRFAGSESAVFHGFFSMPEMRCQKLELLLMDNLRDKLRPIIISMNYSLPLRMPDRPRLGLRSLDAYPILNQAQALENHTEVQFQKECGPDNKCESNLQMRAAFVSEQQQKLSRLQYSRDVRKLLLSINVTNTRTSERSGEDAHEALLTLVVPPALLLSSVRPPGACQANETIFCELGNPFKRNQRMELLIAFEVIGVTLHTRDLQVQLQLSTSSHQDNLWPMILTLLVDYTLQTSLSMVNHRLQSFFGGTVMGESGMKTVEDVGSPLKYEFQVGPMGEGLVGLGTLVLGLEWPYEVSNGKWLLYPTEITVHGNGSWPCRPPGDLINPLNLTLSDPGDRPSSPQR
T1 sequence (P26006 876-1051 partner limits assumed): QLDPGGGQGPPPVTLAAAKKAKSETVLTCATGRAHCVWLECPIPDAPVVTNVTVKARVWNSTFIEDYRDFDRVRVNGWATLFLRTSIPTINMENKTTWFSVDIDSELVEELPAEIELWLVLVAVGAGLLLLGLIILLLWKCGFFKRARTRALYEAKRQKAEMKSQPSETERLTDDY
T1 sequence (P05556 21-798 partner): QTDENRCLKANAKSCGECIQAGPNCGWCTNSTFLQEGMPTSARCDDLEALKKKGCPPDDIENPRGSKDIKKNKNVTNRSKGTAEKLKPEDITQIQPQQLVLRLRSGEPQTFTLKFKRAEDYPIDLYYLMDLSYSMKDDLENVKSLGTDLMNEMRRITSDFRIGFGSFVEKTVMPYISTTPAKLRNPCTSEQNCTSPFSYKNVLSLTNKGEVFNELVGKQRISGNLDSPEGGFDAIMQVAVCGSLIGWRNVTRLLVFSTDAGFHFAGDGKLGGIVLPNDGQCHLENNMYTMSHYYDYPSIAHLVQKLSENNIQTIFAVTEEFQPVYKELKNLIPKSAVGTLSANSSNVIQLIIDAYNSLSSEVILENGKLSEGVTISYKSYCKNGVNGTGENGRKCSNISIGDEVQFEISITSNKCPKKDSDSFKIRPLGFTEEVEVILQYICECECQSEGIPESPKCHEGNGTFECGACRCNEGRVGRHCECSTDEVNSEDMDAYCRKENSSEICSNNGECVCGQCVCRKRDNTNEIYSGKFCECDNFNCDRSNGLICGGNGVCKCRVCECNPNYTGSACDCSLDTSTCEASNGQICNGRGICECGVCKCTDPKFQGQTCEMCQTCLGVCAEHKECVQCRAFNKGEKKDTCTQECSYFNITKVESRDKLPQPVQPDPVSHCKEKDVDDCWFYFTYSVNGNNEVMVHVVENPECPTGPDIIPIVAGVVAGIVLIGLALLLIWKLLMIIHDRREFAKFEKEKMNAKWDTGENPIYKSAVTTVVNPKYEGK

[2] = tested on: mice; assay: Immune activation assays (Figure S2C,D); type: cell-based, Mouse; details: compared with human cells
Method: (§1) Human leukocytes were re-suspended in Hank ’s Buffered Saline Solution (HBSS, without
(§2) Ca2+, Mg 2+) with 10 mM Hepes pH 7.3 and 0.3% BSA at 10^7 cells/ml. Cells were pre-warmed
(§3) at 37°C for 20 min. After adding the effector dilutions in the lower compartment of 24-well plates
(§4) (800 µl/well), a Millicell culture plate insert with 5 µm pore size was placed in each well, f ollowed
(§5) by immediate addition of 200 µl (2 million) leuk ocytes. In one well, the cells were added without
(§6) a f ilter insert, allowing determination of the input number. The plate was incubated at 37°C and
(§7) 5% CO2 f or 45 min. 5 mM EDTA solution was added and the plate was incubated f or another
(§8) 10 min at 37 °C. […]
(§9) determined using a Neubauer chamber, or the numbers of transmigrated monocytes ,
(§10) granulocytes and lymphocytes were determined by flow cytometry (discriminating c e ll […]
(§11) 37°C and 5% CO2. Macrophages on the bottom side of the f ilter were counted. […]
(§12) J software, means and standard deviations were calculated and presented as absolute […]
(§13) Activation of the oxidative burst (phagocyte NADPH oxidase) was measured using a […]
(§14) 150 µl were stored at - 80 °C until cytokine levels were measured with commercially available
(§15) ELISA kits (Ready-set-go system, eBiosciences). […]
(§16) were measured and calculated based on the standards included wit hin the ELISA kits and as […]
(§17) analysis. Measured cytok ine levels were normalized to 1 (the average of the two unstimulated

[3] = tested on: guinea pigs; assay: Immune activation assays (Figure S2C,D); type: cell-based, Guinea pig; details: compared with human cells
Method: as §1, §2, §3, §4, §5, §6, §7, §8, §9, §10, §11, §12, §13, §14, §15, §16, §17

[4] = tested on: human granulocytes; assay: Oxidative burst (dihydro-rhodamine oxidation) assay; type: cell-based; details: compared with the non-PEGylated effector
Method: Activation of the oxidative burst (phagocyte NADPH oxidase) was measured using a
dihydrorhodamine (DHR, Molecular Probes) oxidation assay, based on a method described
previously1. In brief, 200 µl samples of human, murine or guinea pig leukocytes (1.25x 106
cells/ml in HHBS + 10 mM Hepes, pH 7.3, 0.3% BSA and 5 mM EDTA) were loaded with DHR
and catalase (Sigma-Aldrich) and cytochalasin B (Sigma-Aldrich) were added. Cells were pre-
incubated at 37°C for 10 min followed by the addition of 50 µl of effector dilutions (5x the
intended concentration) in the same buffer and another 15 min of incubation at 37°C. Phorbol
(§18) 12- m yr ist oyl 13-acetate (P MA , 3 µg/ml) was used as a positive control. All samples were f ixed
(§19) in 1% formaldehyde Hoechst 33258 solution (0.5 µg/ml) was added and cells were k ept on ice
(§20) until analysis using a FACS Canto system. After gating for live cells and granulocytes (human
(§21) cells) or non- lymphocytes (murine cells) in the FSC/SSC plot, rhodamine-positive cells were
(§22) identif ied in a PE/SSC plot, using an unstimulated sample as a reference.
(§23) Human monocytes, after an overnight pre- culture, were incubated f or 6 more hours in 1 ml
(§24) RPMI+10% FCS containing 100 nM F2- 2PEG, 0.1 ng/ml LPS (Sigma- Aldrich), or no stimulus.
(§25) All experiments were performed in duplicates. […]

[5] = tested on: human leukocytes; assay: Chemotaxis assay; type: cell-based; details: compared with the non-PEGylated effector
Method: as §1, §2, §3, §4, §5, §6, §7, §8
Phorbol
as §18, §19, §20, §21, §22, §23, §24, §25

[6] = tested on: HUVEC; assay: Flow cytometry binding to cells; design: species or system Human; details: 1 µM biotinylated peptide
[7] = tested on: 4T1; details: Table S1; mouse; flow cytometry, 1 µM biotinylated peptide, 2 mM MnCl2, on ice
Method: (§26) from DSMZ or LGC and cultured according to the distributors’ guidelines. Human, murine or
(§27) guinea pig leukocytes or macrophages were isolated and cultured as described below. Cells
(§28) growing in monolayers were detached using trypsin/EDTA and then re- suspended in complete
(§29) culture medium. After washing with washing buffer (W B: 0.9% NaCl, 10 mM Hepes, pH 7.3) at
(§30) 4°C, cells were re-suspended at 2x10^6 cells/ml in peptide blocking b uf f er ( PBB: 0.9% NaCl,
(§31) 10 m M H epes, pH 7.3, 5 m M KCl , 3% BSA, 5% FCS) and incubated for 10 minutes on ice
(§32) concentration in PBB were added to equal volumes of aliquots of 1x10^5 cells, and were
(§33) incubated f or 30 min on ice with repeated shaking to keep the cells in suspension. Except
(§34) three times wit h 1 ml W B, followed by incubation with streptavidin labeled wit h PerCP-Cy5.5
(§35) (BD Biosciences, 200 µg/ml; diluted 1:400 in PBB) for 15 min on ice. After one additional
(§36) wa s h ing step with phosphate- buffered saline (PBS) at 4°C, samples were re-suspended in
(§37) PBS with Hoechst 33258 solution (0.5 µg/ml) and analyzed using a F ACS Canto system ( at
(§38) least 1x10^4 cells per sample were counted). Evaluations were performed using FloJo software. […]
(§39) indicated cases the geometrical mean f luorescence was recorded. […]
(§40) which half-maximum binding intensity was reached (KD) was calculated using Origin 9.0 […]

[8] = tested on: PC-3 or A431 cells; details: 37 °C, streptavidin staining, flow cytometry
Method: washed as described above and then re-suspended in Eagle’s minimum essential medium
incubated on ice or at 37°C. At different time points after washing 50 µl samples were taken
and added to 50 µl of Streptavidin- PerCP-Cy5.5 (diluted 1:200), incubated on ice f or 15 min,
washed with PBS, and analyzed in PBS with Hoechst solution. Fluorescent signals were
plotted against time between washing and streptavidin addition.
over time after incubation on ice and at 37°C.
labeled streptavidin as described previously f or flow cytometry assays.

[9] = tested on: PC-3; assay: Flow cytometry binding to cells; design: species or system Human; key to the marks not given beside the values; details: 1 µM biotinylated peptide
[10] = tested on: primary granulocytes; assay: Flow cytometry binding to cells; details: 1 µM biotinylated peptide; also: key: ++: Strong binding; +: medium binding; +/−: weak binding; −: no binding
[11] = tested on: primary monocytes; assay: Flow cytometry binding to cells; details: 1 µM biotinylated peptide; also: key: ++: Strong binding; +: medium binding; +/−: weak binding; −: no binding
[12] = tested on: NIH-3T3; details: mouse, flow cytometry, 1 µM biotinylated peptide
Method: as §26, §27, §28, §29, §30, §31, §32, §33, §34, §35, §36, §37
least 1x10^4 cells per sample were counted). Evaluations were performed using FloJo software.
W hole cells were gated i n a FSC/SSC plot and live gating was based on Hoechst exclusion.
After gating out debris, aggregates and dead cells, overlay histograms in the PerCP-Cy5.5
indicated cases the geometrical mean f luorescence was recorded.
For determining binding affinity, a rang e of concentrations of the biotinylated compound was
tested and the f luorescent signals were plotted against concentration. The concentration at
which half-maximum binding intensity was reached (KD) was calculated using Origin 9.0
sof tware and a “one site specif ic binding” fit (y =(Bmax* x) /(KD+x) ).
f luorescent signals were plotted against competitor concentration. The concentration at which

[13] = tested on: primary macrophages 7d; assay: Flow cytometry binding to cells; details: 1 µM biotinylated peptide; also: key: ++: Strong binding; +: medium binding; +/−: weak binding; −: no binding
[14] = tested on: U-87MG; assay: Flow cytometry binding to cells; design: key: ++: strong binding; +: m edium binding; +/-: weak or heterogeneous binding; -: no binding; details: Table S1, human, 1 µM biotinylated peptide, 2 mM MnCl2, on ice
[15] = tested on: H MC-1; assay: Flow cytometry binding to cells; details: Table S1, human, 1 µM biotinylated peptide, 2 mM MnCl2, on ice; also: key: ++: Strong binding; +: medium binding; +/−: weak binding; −: no binding
[16] = tested on: HT-29; assay: Flow cytometry binding to cells; design: key: ++: strong binding; +: m edium binding; +/-: weak or heterogeneous binding; -: no binding; details: Table S1, human, 1 µM biotinylated peptide, 2 mM MnCl2, on ice
[17] = tested on: L-929; details: Table S1; mouse; flow cytometry, 1 µM biotinylated peptide, 2 mM MnCl2, on ice
Method: as §26, §27, §28, §29, §30, §31, §32, §33, §34, §35, §36, §37, §38, §39, §40

[18] = tested on: A431; assay: Flow cytometry binding to cells; design: species or system Human; key to the marks not given beside the values; details: 1 µM biotinylated peptide
[19] = tested on: primary leukocytes; assay: Flow cytometry binding to cells; details: 1 µM biotinylated peptide; also: key: ++: Strong binding; +: medium binding; +/−: weak binding; −: no binding
[20] = tested on: MDA-MB-231; assay: Flow cytometry binding to cells; design: key: ++: strong binding; +: m edium binding; +/-: weak or heterogeneous binding; -: no binding; details: Table S1, human, 1 µM biotinylated peptide, 2 mM MnCl2, on ice
[21] = tested on: GPC-16; assay: Flow cytometry binding to cells; design: key to the marks not given beside the values; details: 1 µM biotinylated peptide
[22] = tested on: E0771; details: Table S1; mouse; flow cytometry, 1 µM biotinylated peptide, 2 mM MnCl2, on ice
Method: as §26, §27, §28, §29, §30, §31, §32, §33, §34, §35, §36, §37, §38, §39, §40

[23] = tested on: HeLa; design: key to the marks not given beside the values; details: Table S1; human; flow cytometry, 1 µM biotinylated peptide, 2 mM MnCl2, on ice
[24] = tested on: primary lymphocytes; assay: Flow cytometry binding to cells; details: 1 µM biotinylated peptide; also: key: ++: Strong binding; +: medium binding; +/−: weak binding; −: no binding
[25] = tested on: K562; assay: Flow cytometry binding to cells; design: species or system Human; details: 1 µM biotinylated peptide; also: key: ++: Strong binding; +: medium binding; +/−: weak binding; −: no binding
[26] = tested on: primary macrophages 7 days; assay: Flow cytometry binding to cells; details: 1 µM biotinylated peptide; as to binding to macrophages 7 days: key: ++: strong binding; +: m edium binding; +/-: weak or heterogeneous binding; -: no binding
[27] = 2 mM MnCl2, 30 min on ice, streptavidin-PerCP-Cy5.5
[28] = Table S1, human, 2 mM MnCl2, on ice
[29] = human, 2 mM MnCl2, 30 min on ice, streptavidin-PerCP-Cy5.5
[30] = Table S1, mouse, 2 mM MnCl2, on ice
[31] = mouse, 2 mM MnCl2, 30 min on ice, streptavidin-PerCP-Cy5.5

NC(=O)C[C@@H]1NC(=O)[C@@H]2C[C@@H](O)CN2C(=O)CNC(=O)[C@H](Cc2ccc(O)c([N+](=O)[O-])c2)NC(=O)CNC(=O)[C@@H](CC(=O)O)NC(=O)[C@H](N)CSSC[C@H](C(=O)O)NC1=O [B9] (H-[dC][dD]G[Tyr(3-NO2)]G[Hyp]N[dC]-OH; disulfide 1-8)
competes: displacement of anti-CD49c-PE conjugate [1]

CSCC[C@H](NC=O)C(=O)N[C@@H](CC(C)C)C(=O)N[C@@H](Cc1ccccc1)C(=O)NCC(=O)NCC(=O)N[C@@H](CCCCNC(=O)CCOCCOCCOCCOCCOCCOCCOCCOCCOCCOCCOCCOCCOCCOCCOCCOCCOCCOCCOCCOCCOCCOCCOCCOCCOCCOCCOCCOCCN)C(=O)N[C@@H](CCCCNC(=O)CCOCCOCCOCCOCCOCCOCCOCCOCCOCCOCCOCCOCCOCCOCCOCCOCCOCCOCCOCCOCCOCCOCCOCCOCCOCCOCCOCCOCCN)C(=O)O [F1-2PEG] (For-MLFGGK(PEG28)K(PEG28)-OH)
less potent immune activators: immune activation in mice [2] | immune activation in guinea pigs [3]
two: loss of potency for neutrophil activation (superoxide production) when linked to the PEG chains [4] | loss of potency to induce chemotaxis when linked to the PEG chains [5]

CC[C@H](C)[C@H](NC(=O)[C@H](CCSC)NC(=O)CCCC[C@@H]1SC[C@@H]2NC(=O)N[C@@H]21)C(=O)N[C@@H](Cc1ccccc1)C(=O)N[C@@H](CC(C)C)C(=O)NCC(=O)NCC(=O)N[C@@H](CCCCNC(=O)CCOCCOCCOCCOCCOCCOCCOCCOCCOCCOCCOCCOCCOCCOCCOCCOCCOCCOCCOCCOCCOCCOCCOCCOCCOCCOCCOCCOCCNC(=O)[C@H]1CSSC[C@@H](N)C(=O)N[C@H](CC(=O)O)C(=O)NCC(=O)N[C@@H](Cc2ccc(O)c([N+](=O)[O-])c2)C(=O)NCC(=O)N2C[C@H](O)C[C@H]2C(=O)N[C@@H](CC(N)=O)C(=O)N1)C(=O)N[C@@H](CCCCNC(=O)CCOCCOCCOCCOCCOCCOCCOCCOCCOCCOCCOCCOCCOCCOCCOCCOCCOCCOCCOCCOCCOCCOCCOCCOCCOCCOCCOCCOCCNC(=O)[C@H]1CSSC[C@@H](N)C(=O)N[C@H](CC(=O)O)C(=O)NCC(=O)N[C@@H](Cc2ccc(O)c([N+](=O)[O-])c2)C(=O)NCC(=O)N2C[C@H](O)C[C@H]2C(=O)N[C@@H](CC(N)=O)C(=O)N1)C(=O)O [Biotin-Y9] (I: H-[dC][dD]G[Tyr(3-NO2)]G[Hyp]N[dC][PEG28] / II: H-[dC][dD]G[Tyr(3-NO2)]G[Hyp]N[dC][PEG28] / III: Biotin-MIFLGGKK-OH; disulfide I:1-I:8, II:1-II:8; amide I:C-III:7, II:C-III:8)
-: binding to fresh granulocytes [10, 28] | binding to fresh monocytes [11, 28] | binding to macrophages 7d [13, 30] | binding to H MC-1 [15] | binding to L-929 [17] | binding to leukocytes [19, 30] | binding to fresh lymphocytes [24, 28] | binding to K562 [25, 28]
+/−: binding to primary macrophages 7 days [26, 29]
+/-: binding to macrophages 7 days [26, 28]
at least 15 minutes: t1/2 on cell membranes [8]
+: binding to NIH-3T3 ([12]; Table S1, 2 mM MnCl2, on ice) | binding to NIH-3T3 [12, 27] | binding to E0771 [22]
++: binding to HUVEC [6, 27] | binding to HUVEC [6, 28] | binding to 4T1 [7] | binding to PC-3 [9, 27] | binding to PC-3 [9, 28] | binding to U-87MG [14] | binding to HT-29 [16] | binding to A431 [18, 27] | binding to A431 [18, 28] | binding to MDA-MB-231 [20] | binding to GPC-16 ([21]; Table S1, guinea pig, 2 mM MnCl2, on ice) | binding to GPC-16 ([21]; guinea pig, 2 mM MnCl2, 30 min on ice, streptavidin-PerCP-Cy5.5) | binding to HeLa [23]
−: binding to primary granulocytes [10, 29] | binding to primary monocytes [11, 29] | binding to primary macrophages 7d [13, 31] | binding to primary leukocytes [19, 31] | binding to primary lymphocytes [24, 29] | binding to K562 [25, 27]
